Experimental data reported in ChEMBL document CHEMBL4806958, “Anti-cancer/anti-fibrosis compounds” (2020).
The source made the active and inactive calls. No cut-off for these calls is given here.

Columns and labels:
[1] = Cytotoxicity against human A549-Brm3 cells assessed as reduction in cell viability measured after 7 days by Celltiter-glo luminescent cell viability assay; format: functional, cell-based; settings: A549-BrM3, 168 h
MOLM-14 [2] = experiment: Down regulation of phosphorylated-STAT5 level in human MOLM-14 cells at 0.03 to 3 uM after 48 hrs by Western blotting analysis; format: functional, cell-based; settings: dose 0.03-3 µM
[3] = Cytotoxicity against human TG-1 cells assessed as reduction in cell viability measured after 7 days by Celltiter-glo luminescent cell viability assay; format: functional, cell-based; settings: TG1, 168 h
MSTO-211H = experiment: Cytotoxicity against human MSTO-211H cells assessed as reduction in cell viability and measured after 7 days by Celltiter-glo luminescent cell viability assay; format: functional, cell-based; settings: 168 h
BT-474 = experiment: Cytotoxicity against human BT474 cells assessed as reduction in cell viability and measured after 7 days by Celltiter-glo luminescent cell viability assay; format: functional, cell-based; settings: BT-474, 168 h
MOLM-14 [4] = experiment: Down regulation of phosphorylated-STAT1 level in mouse xenografted with human MOLM-14 cells at 50 mg/kg, po administered twice a day for 21 days by Western blotting analysis; format: functional, organism-based; settings: time 21.0 day
MV4-11 [5] = experiment: Cytotoxicity against human MV-4-11 cells assessed as reduction in cell viability measured after 7 days by Celltiter-glo luminescent cell viability assay; format: functional, cell-based; settings: MV4-11, 168 h
NCI-H2052 = experiment: Cytotoxicity against human H2052 cells assessed as reduction in cell viability and measured after 7 days by Celltiter-glo luminescent cell viability assay; format: functional, cell-based; settings: NCI-H2052, 168 h
MV4-11 [6] = experiment: Down regulation of phosphorylated-STAT5 level in human MV-4-11 cells after 48 hrs by Western blotting analysis; format: functional, cell-based; settings: dose 0.03-3 µM
MV4-11 [7] = experiment: Down regulation of phosphorylated-STAT3 level in human MV-4-11 cells after 24 hrs by Western blotting analysis; format: functional, cell-based; settings: dose 0.03-10 µM
MV4-11 [8] = experiment: Down regulation of MCL-1 level in human MV-4-11 cells at 0.03 to 3 uM after 48 hrs by Western blotting analysis; format: functional, cell-based; settings: dose 0.03-3 µM
SW-620 [9] = experiment: Cytotoxicity against human SW620 cells assessed as reduction in cell viability measured after 7 days in presence of glycolysis inhibitor 2-DG by Celltiter-glo luminescent cell viability assay; format: functional, cell-based; settings: SW-620, 168 h
MOLM-14 [10] = experiment: Down regulation of phosphorylated-STAT1 level in mouse xenografted with human MOLM-14 cells by Western blotting analysis; format: functional, cell-based; settings: dose 10-100 mg/kg
RS4-11 = experiment: Cytotoxicity against human RS4-11 cells assessed as reduction in cell viability measured after 7 days by Celltiter-glo luminescent cell viability assay; format: functional, cell-based; settings: RS4-11, 168 h
SW-620 [11] = experiment: Cytotoxicity against human SW620 cells assessed as reduction in cell viability measured after 7 days by Celltiter-glo luminescent cell viability assay; format: functional, cell-based; settings: SW-620, 168 h
CDK8/Cyclin C = CDK8/Cyclin C (Homo sapiens, UniProt P49336); experiment: Inhibition of kinase tracer 236 binding to His-tagged CDK8/cyclin C (unknown origin) incubated for 60 mins by LanthaScreen Eu-Kinase binding assay; format: protein-complex assay
MCF7 = experiment: Cytotoxicity against human MCF7 cells assessed as reduction in cell viability and measured after 7 days by Celltiter-glo luminescent cell viability assay; format: functional, cell-based; settings: MCF7, 168 h
COLO357 = experiment: Cytotoxicity against human COLO-357 cells assessed as reduction in cell viability and measured after 7 days by Celltiter-glo luminescent cell viability assay; format: functional, cell-based; settings: COLO357, 168 h
MV4-11 [12] = experiment: Down regulation of phosphorylated-STAT1 level in human MV-4-11 cells after 24 hrs by Western blotting analysis; format: functional, cell-based; settings: dose 0.03-10 µM
MOLM-14 [13] = experiment: Antitumor activity against human MOLM-14 cells xenografted in athymic nude mouse assessed as tumor growth inhibition at 50 mg/kg, po administered twice a day with 5 days on and 2 days off dosing schedule for 3 weeks and measured every other day; format: functional, organism-based
MV4-11 [14] = experiment: Down regulation of phosphorylated-STAT1 level in human MV-4-11 cells after 48 hrs by Western blotting analysis; format: functional, cell-based; settings: dose 0.03-3 µM
Huh-7 = experiment: Cytotoxicity against human Huh-7 cells assessed as reduction in cell viability and measured after 7 days by Celltiter-glo luminescent cell viability assay; format: functional, cell-based; settings: Huh-7, 168 h
MOLM-14 [15] = experiment: Down regulation of phosphorylated-STAT5 level in human MOLM-14 cells at 0.03 to 3 uM after 24 hrs by Western blotting analysis; format: functional, cell-based; settings: dose 0.03-3 µM
MV4-11 [16] = experiment: Down regulation of CYR61 level in human MV-4-11 cells at 0.03 to 3 uM after 48 hrs by Western blotting analysis; format: functional, cell-based; settings: dose 0.03-3 µM
[17] = Toxicity in athymic nude mouse xenografted with human MOLM-14 cells assessed as effect on body weight at 50 mg/kg, po administered twice a day with 5 days on and 2 days off dosing schedule for 21 days and measured for every other day; format: organism-based; settings: in vivo, 504 h, time 3 weeks
MOLM-14 [18] = experiment: Down regulation of phosphorylated-STAT5 level in mouse xenografted with human MOLM-14 cells at 50 mg/kg, po administered twice a day for 21 days by Western blotting analysis; format: functional, organism-based; settings: time 21.0 day
U-251 = experiment: Cytotoxicity against human U251 cells assessed as reduction in cell viability and measured after 7 days by Celltiter-glo luminescent cell viability assay; format: functional, cell-based; settings: U-251, 168 h
[19] = target: Cyclin-dependent kinase 19 (Homo sapiens, UniProt Q9BWU1); experiment: Inhibition of kinase tracer 236 binding to GST-tagged CDK19 (unknown origin) incubated for 60 mins by LanthaScreen Eu-Kinase binding assay
MV4-11 [20] = experiment: Antitumor activity against human MV-4-11 cells xenografted in NCr nu/nu mouse assessed as tumor growth inhibition at 50 mg/kg, po administered twice a day for 21 days and measured for every 3 days; format: functional, organism-based; settings: time 21.0 day
OE33 = experiment: Cytotoxicity against human OE33 cells assessed as reduction in cell viability measured after 7 days by Celltiter-glo luminescent cell viability assay; format: functional, cell-based; settings: OE33, 168 h
[21] = Cytotoxicity against human H2030-Brm3 cells assessed as reduction in cell viability measured after 7 days by Celltiter-glo luminescent cell viability assay; format: functional, cell-based; settings: H2030-BrM3, 168 h
HeLa = experiment: Cytotoxicity against human HeLa cells assessed as reduction in cell viability measured after 7 days by Celltiter-glo luminescent cell viability assay; format: functional, cell-based; settings: 168 h
MV4-11 [22] = experiment: Down regulation of phosphorylated-STAT3 level in human MV-4-11 cells after 48 hrs by Western blotting analysis; format: functional, cell-based; settings: dose 0.03-3 µM
MOLM-14 [23] = experiment: Down regulation of phosphorylated-STAT1 level in human MOLM-14 cells at 0.03 to 3 uM after 24 hrs by Western blotting analysis; format: functional, cell-based; settings: dose 0.03-3 µM
[24] = Toxicity in Ncr nu/nu mouse xenografted with human MV-4-11 cells assessed as effect on body weight at 50 mg/kg, po administered twice a day for 21 days and measured for every 3 days; format: organism-based; settings: in vivo, 504 h, time 21 day
A549 = experiment: Cytotoxicity against human A549 cells assessed as reduction in cell viability measured after 7 days by Celltiter-glo luminescent cell viability assay; format: functional, cell-based; settings: A549, 168 h
MOLM-14 [25] = experiment: Cytotoxicity against human MOLM-14 cells assessed as reduction in cell viability measured after 7 days by Celltiter-glo luminescent cell viability assay; format: functional, cell-based; settings: MOLM-14, 168 h
[26] = Cytotoxicity against human H290 cells assessed as reduction in cell viability and measured after 7 days by Celltiter-glo luminescent cell viability assay; format: functional, cell-based; settings: NCI-H290, 168 h

Sequence of CDK8/Cyclin C (P49336 whole entry): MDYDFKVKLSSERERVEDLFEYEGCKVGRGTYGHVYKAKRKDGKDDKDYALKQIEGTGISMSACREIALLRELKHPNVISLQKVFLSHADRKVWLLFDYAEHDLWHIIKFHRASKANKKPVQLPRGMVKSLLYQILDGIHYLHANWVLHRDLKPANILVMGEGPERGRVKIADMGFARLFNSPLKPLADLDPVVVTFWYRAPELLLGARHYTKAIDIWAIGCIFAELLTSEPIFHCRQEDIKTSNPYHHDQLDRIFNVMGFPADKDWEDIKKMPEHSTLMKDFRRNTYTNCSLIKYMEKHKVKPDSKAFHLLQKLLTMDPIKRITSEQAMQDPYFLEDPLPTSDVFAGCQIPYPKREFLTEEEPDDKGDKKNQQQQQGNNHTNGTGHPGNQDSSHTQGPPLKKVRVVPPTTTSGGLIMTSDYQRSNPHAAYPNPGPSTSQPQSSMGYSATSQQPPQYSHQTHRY
Sequence of CDK8/Cyclin C (P24863 whole entry, further chain): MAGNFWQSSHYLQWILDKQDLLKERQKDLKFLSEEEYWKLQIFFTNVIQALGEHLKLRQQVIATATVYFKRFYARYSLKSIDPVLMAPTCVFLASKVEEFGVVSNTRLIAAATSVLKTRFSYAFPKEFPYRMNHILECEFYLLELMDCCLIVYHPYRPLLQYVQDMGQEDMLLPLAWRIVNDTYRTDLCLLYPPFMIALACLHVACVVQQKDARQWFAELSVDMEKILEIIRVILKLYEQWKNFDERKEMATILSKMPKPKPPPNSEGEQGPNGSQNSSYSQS
Sequence of Cyclin-dependent kinase 19 (Q9BWU1 whole entry): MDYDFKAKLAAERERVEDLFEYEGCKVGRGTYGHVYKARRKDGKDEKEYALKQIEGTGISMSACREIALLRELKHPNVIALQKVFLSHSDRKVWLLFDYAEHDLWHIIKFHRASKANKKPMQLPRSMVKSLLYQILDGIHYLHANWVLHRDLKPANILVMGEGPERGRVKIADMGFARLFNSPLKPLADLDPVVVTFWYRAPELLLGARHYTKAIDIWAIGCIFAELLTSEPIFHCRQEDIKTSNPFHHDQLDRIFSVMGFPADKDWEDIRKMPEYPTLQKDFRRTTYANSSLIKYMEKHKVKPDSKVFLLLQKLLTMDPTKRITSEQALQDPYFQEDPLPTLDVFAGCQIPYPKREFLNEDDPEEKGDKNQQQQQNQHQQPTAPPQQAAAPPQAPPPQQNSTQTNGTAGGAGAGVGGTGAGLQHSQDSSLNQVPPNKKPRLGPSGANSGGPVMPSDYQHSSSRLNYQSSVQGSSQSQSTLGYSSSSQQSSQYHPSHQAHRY

Nc1nccc2c(Br)cc3cc(C(=O)[O-])ccc3c12.[Na+]
IC50 [1]: 1000 nM
Activity (MOLM-14 [2]): Active
IC50 [3]: < 1000 nM
IC50 (MSTO-211H): 1000 nM
IC50 (BT-474): 1000 nM
Activity (MOLM-14 [4]): Active
IC50 (MV4-11 [5]): < 1000 nM
IC50 (NCI-H2052): 1000 nM
Activity (MV4-11 [6]): Dose-Dependent Effect
Activity (MV4-11 [7]): Dose-Dependent Effect
Activity (MV4-11 [8]): Active
IC50 (SW-620 [9]): < 1000 nM
Activity (MOLM-14 [10]): Dose-Dependent Effect
IC50 (RS4-11): < 1000 nM
IC50 (SW-620 [11]): 1000 nM
IC50 (CDK8/Cyclin C): < 300 nM
IC50 (MCF7): 1000 nM
IC50 (COLO357): 1000 nM
Activity (MV4-11 [12]): Dose-Dependent Effect
Activity (MOLM-14 [13]): Active
Activity (MV4-11 [14]): Dose-Dependent Effect
IC50 (Huh-7): < 1000 nM
Activity (MOLM-14 [15]): Active
Activity (MV4-11 [16]): Active
Activity [17]: Non-Toxic
Activity (MOLM-14 [18]): Active
IC50 (U-251): 1000 nM
IC50 [19]: < 300 nM
Activity (MV4-11 [20]): Active
IC50 (OE33): < 1000 nM
IC50 [21]: < 1000 nM
IC50 (HeLa): 1000 nM
Activity (MV4-11 [22]): Dose-Dependent Effect
Activity (MOLM-14 [23]): Active
Activity [24]: Non-Toxic
IC50 (A549): 1000 nM
IC50 (MOLM-14 [25]): < 1000 nM
IC50 [26]: 1000 nM
